This passage reports IC50 results from ChEMBL document CHEMBL1155943, “Design of a sialylglycopolymer with a chitosan backbone having efficient inhibitory activity against influenza virus infection” (J Med Chem, 2008).

Values after ≈ are worked out from the molar mass of the structure shown.

The subject of assay [1] is Influenza A virus (A/Puerto Rico/8/1934(H1N1)). Kind of assay: Antiviral activity against human influenza virus (A/New Caledonia/20/1999 (H1N1)) infected in MDCK cells. The class given is functional, organism-based, Influenza A virus (A/New Caledonia/20/1999(H1N1)).
Assay [2] concerns Influenza B virus. As to the kind of experiment: Antiviral activity against Influenza virus (B/Shanghai/361/2002) infected in MDCK cells. Format: functional, organism-based. As to conditions: B/Shanghai/361/2002, MDCK.
Assay [3] deals with Influenza A virus H3N2. As to the kind of experiment: Antiviral activity against Influenza virus (A/Panama/2007/99 (H3N2)) infected in MDCK cells. Format: functional, organism-based, Influenza A virus (A/Panama/2007/1999(H3N2)).
Assay [4] relates to Influenza A virus H3N2. As to the kind of experiment: Antiviral activity against Influenza virus (A/Panama/2007/99 (H3N2)) infected in MDCK cells assessed as sialic acid concentration. Format: functional, organism-based, Influenza A virus (A/Panama/2007/1999(H3N2)).
Assay [5] deals with Influenza B virus. As to the kind of experiment: Antiviral activity against Influenza virus (B/Shanghai/361/2002) infected in MDCK cells assessed as sialic acid concentration. Format: functional, organism-based. As to conditions: B/Shanghai/361/2002, MDCK.
Assay [6] has as its system Influenza A virus (A/Puerto Rico/8/1934(H1N1)). Kind of assay: Antiviral activity against human influenza virus (A/New Caledonia/20/1999 (H1N1)) infected in MDCK cells assessed as sialic acid concentration. Format: functional, organism-based, Influenza A virus (A/New Caledonia/20/1999(H1N1)).

Usually IC50 stands for the concentration that gives 50% inhibition. Turning to `CC(=O)N[C@H]1[C@H]([C@H](O)[C@H](O)CO)O[C@](OC[C@H]2O[C@@H](O[C@@H]([C@H](O)[C@H](C=O)NC(C)=O)[C@H](O)CO)[C@H](O)[C@@H](O)[C@H]2O)(C(=O)O)C[C@@H]1O`, the IC50 is 2000 µg/mL (≈ 2.96 mM) in assay [1]; 10000 µg/mL (≈ 14.8 mM) with Influenza B virus [2]; 3000 µg/mL (≈ 4.45 mM) with Influenza A virus H3N2 [3]; 4 mM in the assay on Influenza A virus H3N2 [4]; 14.8 mM with Influenza B virus [5]; 3 mM in assay [6].
